In US20220127297A1, “Novel Antibacterial 3"-Derivatives Of 4,6-Disubstituted 2,5-Dideoxystreptamine Aminoglycoside Antibiotics” (AGILeBiotics B.V., priority 2018, published 2022):
≈ marks a conversion by molar mass, not a printed value.

These molecules were tested on E. coli (AAC(3)III) (assay: MIC 50, broth micro-dilution, E. coli expressing AAC(3)III). Conditions: ATCC25922 harboring plasmid encoding AAC(3)III.
Format: cell-based, Escherichia coli
Text: Cloning resistant enzymes. An Escherichia coli codon optimized gene encoding AAC(3)-III (GenBank acc.nr. X55652.1; SEQ ID NO:1), including a promoter and terminator sequence, was synthesized by Integrated DNA Technologies, Belgium. The synthesized gene and pBluescript II KS(+) plasmid were digested using the restriction enzymes SacI and SalI, and purified from a 1% TBE-agarose gel using the illustra Gel Band purification kit. The purified linear plasmid and T4 DNA ligase were used to ligate aac(3)-III under control of the constitutive lipoprotein Ipp promoter and ribosomal RNA rrnC terminator, resulting in pBlue_Ipp_aacC3_rrnC.
Plasmid transformation. Approximately 500 ng of the pET-9b(+) (Cat. No. 69432-3, Merck), pAT21-1 (provided by Prof. Dr. Patrice Courvalin, M.D., Pasteur Institute, France; prepared according to Trieu-Cuot et. al, Mol. Gen. Genet. 198(2), 348 (1985)), pBluescript::AAC(6′)-Ie/APH(2″)-Ia (provided by Prof. Dr. Sergei Vakulenko, M.D., University of Notre Dame, Ind., USA; prepared according to S. B. Vakulenko et. al., J. Biol. Chem. 287 (52), 43262 (2012)), pBlue_lpp_aacC3_rrnC and pSET152 (Cat. No. PVT3395, Life Science Market; prepared according to Bierman et al., Gene 116 (1), 43 (1992)) plasmids, encoding APH(3′)-Ia (SEQ ID NO:2), APH(3′)-IIIa (SEQ ID NO:3), AAC(6′)Ie-APH(2″)-Ia (SEQ ID NO:4), AAC(3)-III (SEQ ID NO:1), and AAC(3)-IV (SEQ ID NO:5) respectively, were individually incubated in a vial of competent cells for 15 min on ice. The cells were subsequently heated to 42° C. for 90 s, and cooled on ice for 1 min. After addition of 900 μL LB, the cells were incubated for 1 h at 37° C. and 200 rpm. Cells were plated on LB-agar supplemented with 50 μg/mL KanaA and incubated for 18 h at 37° C. The next day, a single colony was inoculated in 5 mL LB supplemented with 50 μg/mL and grown for 18 h at 37° C. and 200 rpm. A 200 μL sample of each culture was diluted with 200 μL of 40% v/v glycerol in water, and stored at −80° C. The plasmid was purified from the remaining culture using the Plasmid Miniprep kit. Plasmid DNA was investigated by Eurofins Genomics (Germany) to confirm the identity of the aminoglycoside resistance genes.
3.1 Against E. coli Strains
Tested reference compounds. Amikacin sulfate (Cat. No. 01693, Chem-Impex), Gentamicin sulfate (Cat. No. G4918, Sigma Aldrich).
Microbial strains. E. coli ATCC 25922, E. coli ATCC 25922/pET-9b(+), E. coli ATCC 25922/pAT21-1, E. coli ATCC 25922/pBluescript::AAC(6′)-Ie/APH(2″)-Ia, E. coli ATCC 25922/pBlue_lpp_aacC3_rrnC, E. coli ATCC 25922/pSET152.
Culture media and equipment. BBL™ Mueller Hinton Broth 2 (Lot. BCBW1143, Cat. No. 70192, Sigma); Kanamycin A (Cat. No. A1493, AppliChem); 96-well deep well plate, 1 mL (Cat. No. 0030506.200, Eppendorf); Plate lids (Cat. No. 0030131.525, Eppendorf); 96-well plate, F-bottom (Cat. No. 781602, Brand; Incubator, Infors Multitron Pro); Laminar flow (Heraeus KS12); UV/VIS meter (Eppendorf BioPhotometer Plus); Platereader (Tecan Sunrise).
Compound preparation. Compounds were prepared in MH2 media at a concentration of 5 mM and stored at 4° C. For testing, solutions of 128 μM were prepared in MH2. Out of these working solutions, 400 μL was transferred to wells in the first column of 96-well deep well plates. Each compound was transferred in triplicate. Plates were previously filled with 200 μL of MH2 media in all wells except for the wells in the first column. After compound and antibiotic addition, the compounds were serial two-fold diluted by transferring 200 μL from the first to the second column, then from the second to the third column and so on. Finally, 200 μL was removed from the last column.
Inoculum preparation. Microorganisms used were all revived from 20% glycerol (40% v/v glycerol in water was diluted with MH2) storage at −80° C. by inoculating them in 5 mL MH2. inoculums of E. coli containing a plasmid were selected for by adding 50 μg/mL KanaA.

SMILES | MIC50
NCC[C@H](O)C(=O)N[C@@H]1CC(N)[C@@H](O[C@H]2OC(CN)[C@@H](O)CC2N)[C@H](F)C1OC1O[C@H](CO)[C@@H](O)C(N)[C@H]1O (stereo partly drawn) [ABX5024, Tobra-AHB-F] | 1 µM (≈ 0.571 µg/mL)
NCCC(O)C(=O)NC1CC(N)C(OC2OC(CN)C(O)C(O)C2N)C(F)C1OC1OC(CO)C(O)C(N)C1O (stereo not drawn) [ABX4007, KanaB-AHB-F] | 1 µM (≈ 0.587 µg/mL)
N=C(N)N[C@@H]1[C@@H](O)[C@@H](O[C@@H]2[C@@H](O)[C@H](O[C@H]3O[C@H](CN)[C@@H](O)[C@@H](O)[C@H]3N)[C@@H](N)C[C@H]2NC(=O)[C@@H](O)CCN)O[C@H](CO)[C@H]1O [ABX4005, 3′Epi-KanaB-AHB-Gua] | 4 µM (≈ 2.51 µg/mL)
NCCC(O)C(=O)NC1CC(N)C(OC2OC(CN)C(O)C(O)C2N)C(O)C1OC1OC(CO)C(O)C(N)C1O (stereo not drawn) [ABX4001, KanaB-AHB] | 1 to 2 µM
NCC[C@H](O)C(=O)N[C@@H]1CC(N)[C@@H](O[C@H]2OC(CN)[C@@H](O)[C@@H](O)C2N)[C@H](F)C1OC1O[C@H](CO)[C@@H](O)C(N)[C@H]1O (stereo partly drawn) [ABX4003, 3′Epi-KanaB-AHB-F] | 2 µM (≈ 1.17 µg/mL)
N=C(N)NC1[C@@H](O)C(OC2[C@@H](O)[C@H](O[C@H]3OC(CN)[C@@H](O)CC3N)C(N)C[C@H]2NC(=O)[C@@H](O)CCN)O[C@H](CO)[C@H]1O (stereo partly drawn) [ABX5005, Tobra-AHB-Gua] | 0.5 µM (≈ 0.305 µg/mL)
NCCC(O)C(=O)NC1CC(N)C(OC2OC(CN)C(O)C(O)C2O)C(F)C1OC1OC(CO)C(O)C(N)C1O (stereo not drawn) [ABX3005, 3′Epi-KanaA-AHB-F] | 4 µM (≈ 2.35 µg/mL)
N=C(N)NC1[C@@H](O)C(OC2[C@@H](O)[C@H](O[C@H]3OC(CN)[C@@H](O)[C@H](O)C3N)C(N)C[C@H]2NC(=O)[C@@H](O)CCN)O[C@H](CO)[C@H]1O (stereo partly drawn) [ABX4009, KanaB-AHB-Gua] | 1 to 2 µM

Same assay, conditions: Escherichia coli, ATCC25922, ATCC25922 harboring plasmid encoding AAC(3)III

SMILES | MIC50
N=C(NCCO)NC1[C@@H](O)C(OC2[C@@H](F)[C@H](O[C@H]3OC(CN)[C@@H](O)CC3N)C(N)C[C@H]2NC(=O)[C@@H](O)CCN)O[C@H](CO)[C@H]1O (stereo partly drawn) [ABX5029, Tobra-AHB-F-Gua 2-hydroxy-ethyl] | 0.5 µM (≈ 0.328 µg/mL)
N=C(NC[C@H]1CNCCO1)NC1[C@@H](O)C(OC2[C@@H](F)[C@H](O[C@H]3OC(CN)[C@@H](O)CC3N)C(N)C[C@H]2NC(=O)[C@@H](O)CCN)O[C@H](CO)[C@H]1O (stereo partly drawn) [ABX5043, Tobra-AHB-F-Gua (R) morpholin-2-yl methyl] | 0.25 µM (≈ 0.178 µg/mL)
N=C(NCc1ccncc1)NC1[C@@H](O)C(OC2[C@@H](F)[C@H](O[C@H]3OC(CN)[C@@H](O)CC3N)C(N)C[C@H]2NC(=O)[C@@H](O)CCN)O[C@H](CO)[C@H]1O (stereo partly drawn) [ABX5048, Tobra-AHB-F-Gua pyridin-4-yl methyl] | 0.5 to 1 µM (≈ 0.352 to 0.704 µg/mL)
NCC[C@H](O)C(=O)N[C@@H]1C[C@H](N)[C@@H](O[C@H]2O[C@H](CN)[C@@H](O)[C@H](O)[C@H]2O)[C@H](O)[C@H]1O[C@H]1O[C@H](CO)[C@@H](O)[C@H](N)[C@H]1O [Amikacin, amikacin, reference compound] | 2 µM (≈ 1.17 µg/mL)
N=C(NC[C@@H]1CCNC1)NC1[C@@H](O)C(OC2[C@@H](F)[C@H](O[C@H]3OC(CN)[C@@H](O)CC3N)C(N)C[C@H]2NC(=O)[C@@H](O)CCN)O[C@H](CO)[C@H]1O (stereo partly drawn) [ABX5039, Tobra-AHB-F-Gua (R) pyrrolidine-3-ylmethyl] | 0.25 µM (≈ 0.174 µg/mL)
N=C(NCC1CCOC1)NC1[C@@H](O)C(OC2[C@@H](F)[C@H](O[C@H]3OC(CN)[C@@H](O)CC3N)C(N)C[C@H]2NC(=O)[C@@H](O)CCN)O[C@H](CO)[C@H]1O (stereo partly drawn) [ABX5051, Tobra-AHB-F-Gua tetrahydrofuran-3-yl methyl] | 0.5 to 1 µM (≈ 0.348 to 0.697 µg/mL)
C[C@@H](N)CCNC(=N)NC1[C@@H](O)C(OC2[C@@H](F)[C@H](O[C@H]3OC(CN)[C@@H](O)CC3N)C(N)C[C@H]2NC(=O)[C@@H](O)CCN)O[C@H](CO)[C@H]1O (stereo partly drawn) [ABX5047, Tobra-AHB-F-Gua (R) 3-amino-butyl] | 0.25 µM (≈ 0.171 µg/mL)
N=C(N)NC1[C@@H](O)C(OC2[C@@H](F)[C@H](O[C@H]3OC(CNCCO)[C@@H](O)CC3N)C(N)C[C@H]2NC(=O)[C@@H](O)CCN)O[C@H](CO)[C@H]1O (stereo partly drawn) [ABX5045, 6N-2-hydroxy-ethyl-Tobra-AHB-F-Gua] | 0.5 to 1 µM (≈ 0.328 to 0.657 µg/mL)
N=C(NC[C@@H]1CCCN1)NC1[C@@H](O)C(OC2[C@@H](F)[C@H](O[C@H]3OC(CN)[C@@H](O)CC3N)C(N)C[C@H]2NC(=O)[C@@H](O)CCN)O[C@H](CO)[C@H]1O (stereo partly drawn) [ABX5026, Tobra-AHB-F-Gua (S) pyrrolidine-2-yl-methyl] | 0.25 µM (≈ 0.174 µg/mL)
CNCCNC(=N)NC1[C@@H](O)C(OC2[C@@H](F)[C@H](O[C@H]3OC(CN)[C@@H](O)CC3N)C(N)C[C@H]2NC(=O)[C@@H](O)CCN)O[C@H](CO)[C@H]1O (stereo partly drawn) [ABX5038, Tobra-AHB-F-Gua 2-(methylamino)ethyl] | 0.25 µM (≈ 0.167 µg/mL)
N=C(N)NC1[C@@H](O)C(OC2[C@@H](F)[C@H](O[C@H]3OC(CN)[C@@H](O)[C@H](O)C3N)C(N)C[C@H]2NC(=O)[C@@H](O)CCN)O[C@H](CO)[C@H]1O (stereo partly drawn) [ABX4006, KanaB-AHB-F-Gua] | 0.25 µM (≈ 0.157 µg/mL)
N=C(NCC1CCCO1)NC1[C@@H](O)C(OC2[C@@H](F)[C@H](O[C@H]3OC(CN)[C@@H](O)CC3N)C(N)C[C@H]2NC(=O)[C@@H](O)CCN)O[C@H](CO)[C@H]1O (stereo partly drawn) [ABX5046, Tobra-AHB-F-Gua tetrahydrofuran-2-yl methyl] | 0.5 µM (≈ 0.348 µg/mL)
N=C(NC[C@@H]1CNCCO1)NC1[C@@H](O)C(OC2[C@@H](F)[C@H](O[C@H]3OC(CN)[C@@H](O)CC3N)C(N)C[C@H]2NC(=O)[C@@H](O)CCN)O[C@H](CO)[C@H]1O (stereo partly drawn) [ABX5040, Tobra-AHB-F-Gua (S) morpholin-2-yl methyl] | 0.25 µM (≈ 0.178 µg/mL)
N=C(NCc1cnc[nH]1)NC1[C@@H](O)C(OC2[C@@H](F)[C@H](O[C@H]3OC(CN)[C@@H](O)CC3N)C(N)C[C@H]2NC(=O)[C@@H](O)CCN)O[C@H](CO)[C@H]1O (stereo partly drawn) [ABX5050, Tobra-AHB-F-Gua imidazol-5-yl methyl] | 1 µM (≈ 0.693 µg/mL)
N=C(NCCCO)NC1[C@@H](O)C(OC2[C@@H](F)[C@H](O[C@H]3OC(CN)[C@@H](O)CC3N)C(N)C[C@H]2NC(=O)[C@@H](O)CCN)O[C@H](CO)[C@H]1O (stereo partly drawn) [ABX5041, Tobra-AHB-F-Gua 3-hydroxy-propyl] | 0.5 µM (≈ 0.335 µg/mL)
N=C(N)NC1[C@@H](O)C(OC2[C@@H](F)[C@H](O[C@H]3OC(CN)[C@@H](O)[C@H](O)C3O)C(N)C[C@H]2NC(=O)[C@@H](O)CCN)O[C@H](CO)[C@H]1O (stereo partly drawn) [ABX3003, 3′epi-KanaA-AHB-F-Gua] | 1 µM (≈ 0.63 µg/mL)
N=C(NCCCN)NC1[C@@H](O)C(OC2[C@@H](F)[C@H](O[C@H]3OC(CN)[C@@H](O)CC3N)C(N)C[C@H]2NC(=O)[C@@H](O)CCN)O[C@H](CO)[C@H]1O (stereo partly drawn) [ABX5030, Tobra-AHB-F-Gua-3-amino-propyl] | 0.25 µM (≈ 0.167 µg/mL)
N=C(N)NC1C(O)[C@@H](CO)OC(OC2C(F)[C@H](O[C@H]3OC(CN)[C@@H](O)CC3N)C(N)C[C@H]2NC(=O)[C@@H](O)CCN)[C@@H]1O (stereo partly drawn) [ABX5006, Tobra-AHB-F-Gua] | 0.25 µM (≈ 0.153 µg/mL)
N=C(NCCN)NC1C(O)[C@@H](CO)OC(OC2C(F)[C@H](O[C@H]3OC(CN)[C@@H](O)CC3N)C(N)C[C@H]2NC(=O)[C@@H](O)CCN)[C@@H]1O (stereo partly drawn) [ABX5020, Tobra-AHB-F-Gua-2-amino-ethyl] | 0.25 to 0.5 µM (≈ 0.164 to 0.328 µg/mL)
